Reference: patent publication US10301280B2 (Plexxikon Inc., priority 2012, dated 2019)

Test system: BaF3-FL KIT D816V or BaF3-FL KIT V560G/D816V cell line
Test: Cell-based assays of c-Kit mutant kinase activity (cell growth, ATPlite)
Conditions: at least one of the c-kit cell assays of Example 26
Method: The c-Kit mutant D816V inhibitors were assessed using an engineered BaF3-FL KIT D816V or BaF3-FL KIT V560G/D816V cell line. The BaF3-FL KIT D816V cell lines were created by introduction of KIT mutant (D816V) full length constructs that render the cells dependent on the introduced kinase for growth. Inhibitors of c-Kit mutant D816V kinase reduce or eliminate the mediated c-kit mutant D816V kinase activation, resulting in reduced cell proliferation of the BaF3-FL Kit mutant D816V cells. This inhibition is measured by the effect of compound concentration on cell growth to assess IC50 values. BaF3-FL KIT D816V cells were seeded at 1×10^4 cells per well of a 96 well cell culture plate in 50 μl of cell culture medium of RPMI Medium 1X (Invitrogen #11875-093) supplemented with 10% FBS (Invitrogen #10438), 1% Non Essential Amino Acids(Invitrogen #11140), 1% Penicillin Streptomycin (Invitrogen #15140), 1% L-Glutamine (Invitrogen #25030-081). Compounds were dissolved in DMSO at a concentration of 5 mM and were serially diluted 1:3 for a total of eight points and added to the cells to a final maximum concentration of 10 μM in 100 μl cell culture medium (final concentration 0.2% DMSO). Cells were also treated with Dasatinib as a positive control. The cells were incubated at 37° C., 5% CO2 for three days. ATPlite Buffer (Perkin Elmer #6016739) and substrate were equilibrated to room temperature, and enzyme/substrate Recombinant Firefly Luciferase/D-Luciferin was reconstituted. The cell plates were equilibrated to room temperature for 30 minutes, then lysed by addition of 25 uL per well of the ATPlite Reagent. The plate was mixed for 5 minutes on a plate shaker to lyse the cells. The plates were read on a Tecan Safire using Luminescence protocol modified to read 0.1 s per well. The luminescence reading assesses the ATP content, which correlates directly with cell number such that the reading as a function of compound concentration is used to determine the IC50 value.
Plasmids P75635 and P75565 were engineered for mammalian cell expression. In both plasmids, full-length human v-kit Hardy-Zuckerman 4 feline sarcoma viral oncogene homolog gene (NCBI accession NM_000222, KIT, residues M1-V976) was subcloned into the pCI-Neo vector (Promega E1841). Plasmid P75635 contains the mutation of residue Aspartic acid 816 to Valine. Plasmid P75565 contains the double mutation of residues Valine 560 to Glycine and Aspartic acid 816 to Valine. The pCI-neo Mammalian Expression Vector carries the human cytomegalovirus (CMV) immediate-early enhancer/promoter region to promote constitutive expression of KIT and contains the neomycin phosphotransferase gene, a selectable marker.
It is understood that the results of these assays may vary as assay conditions are varied. Inhibition levels determined under the conditions described herein represent a relative activity for the compounds tested under the specific conditions employed. The cell based assays are likely to show variability due to the complexity of the system and the sensitivity thereof to any changes in the assay conditions. […] In some instances, the compounds were not tested in all of the assays, or assay results were not valid.

IC50, < 10 µM:
Cc1cc(CNc2cnc3[nH]c(-c4ccc(F)cc4)cc3c2)[nH]n1 [P-2142, 2-(4-fluorophenyl)-N-[(5-methyl-1H-pyrazol-3-yl)methyl]-1H-pyrrolo[2,3-b]pyridin-5-amine]
Cc1n[nH]c(C(=O)Nc2cnc3[nH]c(-c4cccc(Cl)c4C)cc3c2)c1C [P-2147, N-[2-(3-chloro-2-methyl-phenyl)-1H-pyrrolo[2,3-b]pyridin-5-yl]-3,4-dimethyl-1H-pyrazole-5-carboxamide]
O=C(Nc1cnc2[nH]c(-c3ccc(F)cc3)cc2c1)c1cc(C(F)(F)F)n[nH]1 [P-2156, N-[2-(4-fluorophenyl)-1H-pyrrolo[2,3-b]pyridin-5-yl]-3-(trifluoromethyl)-1H-pyrazole-5-carboxamide]
COc1nc(C)ccc1-c1cc2cc(NC(=O)c3[nH]nc(C)c3C)cnc2[nH]1 [P-2170, N-[2-(2-methoxy-6-methyl-3-pyridyl)-1H-pyrrolo[2,3-b]pyridin-5-yl]-3,4-dimethyl-1H-pyrazole-5-carboxamide]
COc1nccc(-c2cc3cc(NC(=O)c4[nH]nc(C)c4C)cnc3[nH]2)c1Cl [P-2171, N-[2-(3-chloro-2-methoxy-4-pyridyl)-1H-pyrrolo[2,3-b]pyridin-5-yl]-3,4-dimethyl-1H-pyrazole-5-carboxamide]
CCc1n[nH]c(C(=O)Nc2cnc3[nH]c(-c4ccc(F)cc4)cc3c2)c1Cl [P-2173, 4-chloro-3-ethyl-N-[2-(4-fluorophenyl)-1H-pyrrolo[2,3-b]pyridin-55-yl]-1H-pyrazole-5-carboxamide]
Cc1[nH]nc(C(=O)Nc2cnc3[nH]cc(-c4cccc(N5CCNCC5)n4)c3c2)c1C [P-2190, 4,5-dimethyl-N-(3-(6-(piperazin-1-yl)pyridin-2-yl)-1H-pyrrolo[2,3-b]pyridin-5-yl)-1H-pyrazole-3-carboxamide]
Cc1[nH]nc(C(=O)Nc2cnc3[nH]cc(-c4cccc(N5CCOCC5)n4)c3c2)c1C [P-2192, 4,5-dimethyl-N-(3-(6-morpholinopyridin-2-yl)-1H-pyrrolo[2,3-b]pyridin-5-yl)-1H-pyrazole-3-carboxamide]
Cc1[nH]nc(C(=O)Nc2cnc3[nH]cc(-c4ccnc(N5CCOCC5)c4)c3c2)c1C [P-2193, 4,5-dimethyl-N-(3-(2-morpholinopyridin-4-yl)-1H-pyrrolo[2,3-b]pyridin-5-yl)-1H-pyrazole-3-carboxamide]
CC(=O)N1CC(n2cc(-c3cc4cc(NC(=O)c5n[nH]c(C)c5C)cnc4[nH]3)c(C)n2)C1 [P-2194, N-(2-(1-(1-acetylazetidin-3-yl)-3-methyl-1H-pyrazol-4-yl)-1H-pyrrolo[2,3-b]pyridin-5-yl)-4,5-dimethyl-1H-pyrazole-3-carboxamide]
Cc1nn(C2CNC2)cc1-c1cc2cc(NC(=O)c3n[nH]c(C)c3C)cnc2[nH]1 [P-2195, N-(2-(1-(azetidin-3-yl)-3-methyl-1H-pyrazol-4-yl)-1H-pyrrolo[2,3-b]pyridin-5-yl)-4,5-dimethyl-1H-pyrazole-3-carboxamide]
Cc1[nH]nc(C(=O)Nc2cnc3[nH]c(-c4cnn(C5COC5)c4C)cc3c2)c1C [P-2196, 4,5-dimethyl-N-(2-(5-methyl-1-(oxetan-3-yl)-1H-pyrazol-4-yl)-1H-pyrrolo[2,3-b]pyridin-5-yl)-1H-pyrazole-3-carboxamide]
Cc1[nH]nc(C(=O)Nc2cnc3[nH]c(-c4cnn(C5CNC5)c4C)cc3c2)c1C [P-2197, N-(2-(1-(azetidin-3-yl)-5-methyl-1H-pyrazol-4-yl)-1H-pyrrolo[2,3-b]pyridin-5-yl)-4,5-dimethyl-1H-pyrazole-3-carboxamide]
Cc1[nH]nc(C(=O)Nc2cnc3[nH]c(-c4cnn(C5CCNCC5)c4C)cc3c2)c1C [P-2198, 4,5-dimethyl-N-(2-(5-methyl-1-(piperidin-4-yl)-1H-pyrazol-4-yl)-1H-pyrrolo[2,3-b]pyridin-5-yl)-1H-pyrazole-3-carboxamide]
CC(=O)N1CCC(n2ncc(-c3cc4cc(NC(=O)c5n[nH]c(C)c5C)cnc4[nH]3)c2C)CC1 [P-2199, N-(2-(1-(1-acetylpiperidin-4-yl)-5-methyl-1H-pyrazol-4-yl)-1H-pyrrolo[2,3-b]pyridin-5-yl)-4,5-dimethyl-1H-pyrazole-3-carboxamide]
Cc1[nH]nc(C(=O)Nc2cnc3[nH]c(-c4cnn(C5CCN(C(=O)C6CC6)CC5)c4C)cc3c2)c1C [P-2200, N-(2-(1-(1-(cyclopropanecarbonyl)piperidin-4-yl)-5-methyl-1H-pyrazol-4-yl)-1H-pyrrolo[2,3-b]pyridin-5-yl)-4,5-dimethyl-1H-pyrazole-3-carboxamide]
Cc1nn(C2CCNCC2)cc1-c1cc2cc(NC(=O)c3n[nH]c(C)c3C)cnc2[nH]1 [P-2201, 4,5-dimethyl-N-(2-(3-methyl-1-(piperidin-4-yl)-1H-pyrazol-4-yl)-1H-pyrrolo[2,3-b]pyridin-5-yl)-1H-pyrazole-3-carboxamide]
CC(=O)N1CCC(n2cc(-c3cc4cc(NC(=O)c5n[nH]c(C)c5C)cnc4[nH]3)c(C)n2)CC1 [P-2202, N-(2-(1-(1-acetylpiperidin-4-yl)-3-methyl-1H-pyrazol-4-yl)-1H-pyrrolo[2,3-b]pyridin-5-yl)-4,5-dimethyl-1H-pyrazole-3-carboxamide]
Cc1nn(C2CCN(C(=O)C3CC3)CC2)cc1-c1cc2cc(NC(=O)c3n[nH]c(C)c3C)cnc2[nH]1 [P-2203, N-(2-(1-(1-(cyclopropanecarbonyl)piperidin-4-yl)-3-methyl-1H-pyrazol-4-yl)-1H-pyrrolo[2,3-b]pyridin-5-yl)-4,5-dimethyl-1H-pyrazole-3-carboxamide]
Cc1[nH]nc(C(=O)Nc2cnc3[nH]c(-c4ccnc(NC5CC5)c4)cc3c2)c1C [P-2204, N-(2-(2-(cyclopropylamino)pyridin-4-yl)-1H-pyrrolo[2,3-b]pyridin-5-yl)-4,5-dimethyl-1H-pyrazole-3-carboxamide]
Cc1[nH]nc(C(=O)Nc2cnc3[nH]c(-c4ccnc(NC(=O)C5CC5)c4Cl)cc3c2)c1C [P-2205, N-(2-(3-chloro-2-(cyclopropanecarboxamido)pyridin-4-yl)-1H-pyrrolo[2,3-b]pyridin-5-yl)-4,5-dimethyl-1H-pyrazole-3-carboxamide]
Cc1[nH]nc(C(=O)Nc2cnc3[nH]c(-c4ccnc(NC(=O)C5CC5)c4)cc3c2)c1C [P-2206, N-(2-(2-(cyclopropanecarboxamido)pyridin-4-yl)-1H-pyrrolo[2,3-b]pyridin-5-yl)-4,5-dimethyl-1H-pyrazole-3-carboxamide]
Cc1[nH]nc(C(=O)Nc2cnc3[nH]c(-c4ccnc(C5CCN(C(=O)C6CC6)CC5)c4)cc3c2)c1C [P-2207, N-(2-(2-(1-(cyclopropanecarbonyl)piperidin-4-yl)pyridin-4-yl)-1H-pyrrolo[2,3-b]pyridin-5-yl)-4,5-dimethyl-1H-pyrazole-3-carboxamide]
